According to ChEMBL document CHEMBL3885861, “Open TG-GATES”:

Species on record: Rattus norvegicus
Assay: Open TG-GATES - Regimen: Daily Repeat
Assay type: toxicity, organism-based, Sprague-Dawley
Design: regimen Daily Repeat, gender Male, age 6 weeks
Conditions: in vivo, po, route gavage; for GLC / IP / K / LDH / Na / PL / RALB / TBIL / TC / TG / TP / gamma-GTP / A/G / ALP / ALT / AST / BUN / CRE / Ca / Cl / DBIL: tissue Plasma; for APTT / Bas / Eos / Fbg / Hb / Ht / Lym / MCH / MCHC / MCV / Mono / Neu / PT / Plat / RBC / Ret / WBC: tissue Blood; for KIDNEY_L / KIDNEY_R / KIDNEY_TOTAL: tissue Kidney; for LIVER: tissue Liver
[1] = 10 mg/kg, […], dose level Middle, time 14 day
[2] = 10 mg/kg, […], dose level Middle, time 28 day
[3] = 30 mg/kg, 72 h, dose level High, time 3 day
[4] = 30 mg/kg, […], dose level High, time 7 day
[5] = 30 mg/kg, […], dose level High, time 14 day

CCN(CC)N=O [N-NITROSODIETHYLAMINE]
GLC [1]: 180 mg/dL | IP [1]: 7 mg/dL | K [1]: 3.8 meq/L | LDH [1]: 259 IU/L | Na [1]: 140.2 meq/L | PL [1]: 140.2 mg/dL | RALB [1]: 3.4 g/dL | TBIL [1]: 0.2 mg/dL | TC [1]: 70.4 mg/dL | TG [1]: 67.6 mg/dL | TP [1]: 5.5 g/dL | gamma-GTP [1]: 2.2 IU/L | A/G [2]: 1.7 | ALP [2]: 1261.4 IU/L | ALT [2]: 69 IU/L | AST [2]: 110.4 IU/L | BUN [2]: 15 mg/dL | CRE [2]: 0.5 mg/dL | Ca [2]: 9.9 mg/dL | Cl [2]: 103.6 meq/L | DBIL [2]: 0.1 mg/dL | GLC [2]: 165.8 mg/dL | IP [2]: 5.9 mg/dL | K [2]: 3.5 meq/L | LDH [2]: 242 IU/L | Na [2]: 140.6 meq/L | PL [2]: 146.2 mg/dL | RALB [2]: 3.3 g/dL | TBIL [2]: 0.2 mg/dL | TC [2]: 70.8 mg/dL | TG [2]: 79.2 mg/dL | TP [2]: 5.3 g/dL | gamma-GTP [2]: 3.2 IU/L | TERMINAL_BW [3]: 209.6 g | APTT [3]: 17.1 s | Bas [3]: 0.6% | Eos [3]: 1.4% | Fbg [3]: 211.6 mg/dL | Hb [3]: 15.6 g/dL | Ht [3]: 44.7% | Lym [3]: 81.2% | MCH [3]: 21.3 pg | MCHC [3]: 34.8% | MCV [3]: 61.1 fL | Mono [3]: 3.4% | Neu [3]: 12.6% | PT [3]: 14.2 s | Plat [3]: 134.9 x10_4/uL | RBC [3]: 732.4 x10_4/ul | Ret [3]: 4% | WBC [3]: 84.6 x10_2/uL | KIDNEY_L [3]: 1 g | KIDNEY_R [3]: 0.9 g | KIDNEY_TOTAL [3]: 1.9 g | LIVER [3]: 7.6 g | A/G [3]: 1.8 | ALP [3]: 979.2 IU/L | ALT [3]: 64.4 IU/L | AST [3]: 196.8 IU/L | BUN [3]: 12.4 mg/dL | CRE [3]: 0.4 mg/dL | Ca [3]: 10.4 mg/dL | Cl [3]: 103.2 meq/L | DBIL [3]: 0.1 mg/dL | GLC [3]: 174.6 mg/dL | IP [3]: 7.5 mg/dL | K [3]: 4 meq/L | LDH [3]: 316.8 IU/L | Na [3]: 140.4 meq/L | PL [3]: 135.8 mg/dL | RALB [3]: 3.4 g/dL | TBIL [3]: 0.2 mg/dL | TC [3]: 80.6 mg/dL | TG [3]: 59.4 mg/dL | TP [3]: 5.2 g/dL | gamma-GTP [3]: 1.6 IU/L | TERMINAL_BW [4]: 200.4 g | TERMINAL_BW [5]: 195.1 g | APTT [4]: 21.4 s | Bas [4]: 1% | Eos [4]: 1% | Fbg [4]: 153.6 mg/dL | Hb [4]: 17.4 g/dL | Ht [4]: 49% | Lym [4]: 76% | MCH [4]: 21.1 pg | MCHC [4]: 35.6% | MCV [4]: 59.2 fL | Mono [4]: 4.4% | Neu [4]: 17.4% | PT [4]: 19.5 s | Plat [4]: 126.6 x10_4/uL | RBC [4]: 827 x10_4/ul | Ret [4]: 1.6% | WBC [4]: 117.4 x10_2/uL | APTT [5]: 87.2 s | Bas [5]: 1% | Eos [5]: 0% | Fbg [5]: 66 mg/dL | Hb [5]: 16.7 g/dL | Ht [5]: 48.8% | Lym [5]: 26% | MCH [5]: 20.7 pg | MCHC [5]: 34.2% | MCV [5]: 60.5 fL | Mono [5]: 7% | Neu [5]: 65% | PT [5]: 63.4 s | Plat [5]: 112.1 x10_4/uL | RBC [5]: 807 x10_4/ul | Ret [5]: 3.6% | WBC [5]: 108.1 x10_2/uL | KIDNEY_L [4]: 0.9 g | KIDNEY_R [4]: 0.9 g | KIDNEY_TOTAL [4]: 1.8 g | KIDNEY_L [5]: 1.2 g | KIDNEY_R [5]: 1.2 g | KIDNEY_TOTAL [5]: 2.4 g | LIVER [4]: 4.6 g | LIVER [5]: 2.7 g | A/G [4]: 2 | ALP [4]: 1514 IU/L | ALT [4]: 160.2 IU/L | AST [4]: 315.6 IU/L | BUN [4]: 12.6 mg/dL | CRE [4]: 0.4 mg/dL | Ca [4]: 9.6 mg/dL | Cl [4]: 104.2 meq/L | DBIL [4]: 0.7 mg/dL | GLC [4]: 140.4 mg/dL | IP [4]: 7 mg/dL | K [4]: 3.9 meq/L | LDH [4]: 465.4 IU/L | Na [4]: 138.6 meq/L | PL [4]: 171 mg/dL | RALB [4]: 2.9 g/dL | TBIL [4]: 0.9 mg/dL | TC [4]: 109 mg/dL | TG [4]: 27.4 mg/dL | TP [4]: 4.4 g/dL | gamma-GTP [4]: 9.2 IU/L | A/G [5]: 2.8 | ALP [5]: 1357 IU/L | ALT [5]: 206 IU/L | AST [5]: 748 IU/L | BUN [5]: 47 mg/dL | CRE [5]: 0.7 mg/dL | Ca [5]: 9.4 mg/dL | Cl [5]: 90 meq/L | DBIL [5]: 4.2 mg/dL | GLC [5]: 61 mg/dL | IP [5]: 9.2 mg/dL | K [5]: 4.5 meq/L | LDH [5]: 983 IU/L | Na [5]: 130 meq/L | PL [5]: 245 mg/dL | RALB [5]: 2.2 g/dL | TBIL [5]: 5.1 mg/dL | TC [5]: 231 mg/dL | TG [5]: 88 mg/dL | TP [5]: 3 g/dL | gamma-GTP [5]: 16 IU/L
